From patent US7625929B2, “Oxophenyl-cyclohexyl-propanolamine derivatives, production and use thereof in therapeutics” (sanofi-aventis, priority 2002, dated 2009)

Melting point, 125 °C:
CS(=O)(=O)c1cc(OC[C@@H](O)CN[C@H]2CC[C@H](c3ccc(C(=O)N4CCC5(CC4)Cc4ccccc4C5)cc3)CC2)ccc1O [compound No. 13, trans-4-{[(2S)-3-({4-[4-(1,3-dihydro-1′H-spiro[indene-2,4′-piperidin]-1′-ylcarbonyl)phenyl]-cyclohexyl}amino)-2-hydroxypropyl]oxy}-2-(methylsulfonyl)phenol]
CS(=O)(=O)c1cc(OC[C@@H](O)CN[C@H]2CC[C@H](c3ccc(C(=O)N4CCC5(CCc6ccccc65)CC4)cc3)CC2)ccc1O [compound No. 15, trans-4-{[(2S)-3-({4-[4-(2,3-dihydro-1′H-spiro[indene-1,4′-piperidin]-1′-ylcarbonyl)phenyl]-cyclohexyl}amino)-2-hydroxypropyl]oxy}-2-(methylsulfonyl)phenol]
CS(=O)(=O)c1cc(OC[C@@H](O)CN[C@H]2CC[C@H](c3ccc(C(=O)N4CCC5(CCCc6ccccc65)CC4)cc3)CC2)ccc1O [compound No. 17, trans-4-{[(2S)-3-({4-[4-(3,4-dihydro-1′H-spiro[naphthalene-1,4′-piperidin]-1′-ylcarbonyl)phenyl]cyclohexyl}amino)-2-hydroxypropyl]-oxy}-2-(methylsulfonyl)phenol]
